Results from PubChem BioAssay AID248 (DTP/NCI, 2004).
Several values for one entry are separate records, joined by “and”; a condition that tells them apart may be missing. Equal values may be shown once. Toxic doses and inconclusive results are not listed. No stated cut-off is given here; in the data, active means T/C of 150% or more; inactive means T/C below 125%.

System: L1210 leukemia ip in BDF1 mice, survival T/C
Assay: NCI In Vivo Anticancer Drug Screen. Data for tumor model L1210 Leukemia (intraperitoneal) in B6D2F1 (BDF1) mice
Conditions: endpoint: mean survival time, higher = longer survival
Summary of the method: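 Value reflects the ratio of survival in compound-treated mice to survival in vehicle-treated controls, with both groups carrying the same transplanted tumor.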

[1] = dose: 100.0 mg/kg/injection, schedule: Q04DX003 (ip), vehicle: saline with Tween-80
[2] = dose: 200.0 mg/kg/injection, schedule: Q04DX003 (ip), vehicle: saline with Tween-80
[3] = dose: 400.0 mg/kg/injection, schedule: Q04DX003 (ip), vehicle: saline with Tween-80
[4] = dose: 100.0 mg/kg/injection, schedule: Q04DX003 (ip), vehicle: saline
[5] = dose: 200.0 mg/kg/injection, schedule: Q04DX003 (ip), vehicle: saline
[6] = dose: 400.0 mg/kg/injection, schedule: Q04DX003 (ip), vehicle: saline
[7] = dose: 12.5 mg/kg/injection, schedule: Q04DX002 (ip), vehicle: saline with Tween-80

Measured: T/C

O=C=NCCCl
inactive: dose: 0.5 mg/kg/injection, schedule: Q01DX001 (ip), vehicle: propolene glycol 101 % of control | dose: 1.0 mg/kg/injection, schedule: Q01DX001 (ip), vehicle: propolene glycol 90 % of control | dose: 2.0 mg/kg/injection, schedule: Q01DX001 (ip), vehicle: propolene glycol 89 % of control | dose: 3.0 mg/kg/injection, schedule: Q01DX001 (ip), vehicle: propolene glycol 89 % of control | dose: 4.0 mg/kg/injection, schedule: Q01DX001 (ip), vehicle: propolene glycol 92 % of control | dose: 6.0 mg/kg/injection, schedule: Q01DX001 (ip), vehicle: propolene glycol 89 % of control | dose: 6.5 mg/kg/injection, schedule: Q01DX001 (ip), vehicle: olive oil, sesame oil, peanut oil 98 % of control | dose: 8.0 mg/kg/injection, schedule: Q01DX001 (ip), vehicle: propolene glycol 92 % of control | dose: 12.5 mg/kg/injection, schedule: Q01DX001 (ip), vehicle: propolene glycol 95 % of control | dose: 12.5 mg/kg/injection, schedule: Q01DX009 (sc), vehicle: olive oil, sesame oil, peanut oil 95 % of control | dose: 13.0 mg/kg/injection, schedule: Q01DX001 (ip), vehicle: olive oil, sesame oil, peanut oil 104 % of control | dose: 25.0 mg/kg/injection, schedule: Q01DX001 (ip), vehicle: propolene glycol 91 % of control | dose: 25.0 mg/kg/injection, schedule: Q01DX009 (sc), vehicle: olive oil, sesame oil, peanut oil 103 % of control | dose: 26.0 mg/kg/injection, schedule: Q01DX001 (ip), vehicle: olive oil, sesame oil, peanut oil 96 % of control | dose: 40.0 mg/kg/injection, schedule: Q01DX001 (ip), vehicle: olive oil, sesame oil, peanut oil 102 % of control | dose: 50.0 mg/kg/injection, schedule: Q01DX009 (sc), vehicle: olive oil, sesame oil, peanut oil 97 % of control | dose: 60.0 mg/kg/injection, schedule: Q01DX001 (ip), vehicle: olive oil, sesame oil, peanut oil 98 % of control | dose: 93.0 mg/kg/injection, schedule: Q01DX001 (ip), vehicle: olive oil, sesame oil, peanut oil 100 % of control | dose: 100.0 mg/kg/injection, schedule: Q04DX003 (sc), vehicle: olive oil, sesame oil, peanut oil 97 % of control | dose: 125.0 mg/kg/injection, schedule: Q01DX001 (ip), vehicle: olive oil, sesame oil, peanut oil 106 % of control | dose: 187.0 mg/kg/injection, schedule: Q01DX001 (ip), vehicle: olive oil, sesame oil, peanut oil 98 % of control | dose: 250.0 mg/kg/injection, schedule: Q01DX001 (ip), vehicle: olive oil, sesame oil, peanut oil 98 % of control | dose: 250.0 mg/kg/injection, schedule: Q01DX001 (ip), vehicle: propolene glycol 113 % of control | dose: 375.0 mg/kg/injection, schedule: Q01DX001 (ip), vehicle: olive oil, sesame oil, peanut oil 104 % of control | dose: 500.0 mg/kg/injection, schedule: Q01DX001 (ip), vehicle: olive oil, sesame oil, peanut oil 93 % of control

CC(NC(=O)C(C)(C)C)c1ccc(-c2ccccc2)cc1 (configuration not stated)
inactive: dose: 100.0 mg/kg/injection, schedule: Q04DX002 (ip), vehicle: saline with Tween-80 98 % of control | dose: 200.0 mg/kg/injection, schedule: Q04DX002 (ip), vehicle: saline with Tween-80 95 % of control | dose: 400.0 mg/kg/injection, schedule: Q04DX002 (ip), vehicle: saline with Tween-80 98 % of control

CC1(C)N=C(N)Nc2nnc(-c3ccc(Cl)cc3)n21
inactive: [1] 97 % of control | [2] 97 % of control | [3] 94 % of control

CCOC(=O)c1cnc(NN)nc1NCc1ccccc1
inactive: dose: 50.0 mg/kg/injection, schedule: Q01DX009 (ip), vehicle: saline with Tween-80 93 % of control | dose: 100.0 mg/kg/injection, schedule: Q01DX009 (ip), vehicle: saline with Tween-80 89 % of control | [1] 87 % of control | dose: 200.0 mg/kg/injection, schedule: Q01DX009 (ip), vehicle: saline with Tween-80 98 % of control | [2] 96 % of control

c1ccc2c3c(ccc2c1)OCN(C12CC4CC(CC(C4)C1)C2)C3
inactive: [4] 98 % of control | [5] 105 % of control | [6] 89 % of control

OCNC(=S)SSC(=S)NCO
inactive: [4] 96 % of control | [5] 98 % of control | [6] 98 % of control

NC(=S)NCC12CC3CC(CC(C3)C1)C2
inactive: dose: 3.0 mg/kg/injection, schedule: Q04DX002 (ip), vehicle: Klucel (hydroxypropylcellulose) (HPC) 101 % of control and 114 % of control | dose: 6.0 mg/kg/injection, schedule: Q04DX002 (ip), vehicle: Klucel (hydroxypropylcellulose) (HPC) 106 % of control and 120 % of control | dose: 12.0 mg/kg/injection, schedule: Q04DX002 (ip), vehicle: Klucel (hydroxypropylcellulose) (HPC) 112 % of control | dose: 12.5 mg/kg/injection, schedule: Q04DX002 (ip), vehicle: Klucel (hydroxypropylcellulose) (HPC) 105 % of control | dose: 25.0 mg/kg/injection, schedule: Q04DX002 (ip), vehicle: Klucel (hydroxypropylcellulose) (HPC) 101 % of control

O=S(=O)(Cl)OC(CCl)C(OS(=O)(=O)Cl)C(OS(=O)(=O)Cl)C(CCl)OS(=O)(=O)Cl (configuration not stated)
inactive: [1] 102 % of control | [2] 97 % of control | [3] 114 % of control

C1=CC(OC2C=CCC2)CC1 (configuration not stated)
inactive: dose: 25.0 mg/kg/injection, schedule: Q04DX002 (ip), vehicle: saline 89 % of control | dose: 50.0 mg/kg/injection, schedule: Q04DX002 (ip), vehicle: saline 118 % of control | dose: 100.0 mg/kg/injection, schedule: Q04DX002 (ip), vehicle: saline 99 % of control

O=c1nc2ccc3[nH]c(O)c4ccc1c2c34
inactive: dose: 50.0 mg/kg/injection, schedule: Q01DX001 (ip), vehicle: saline 104 % of control | dose: 100.0 mg/kg/injection, schedule: Q01DX001 (ip), vehicle: saline 104 % of control | dose: 200.0 mg/kg/injection, schedule: Q01DX001 (ip), vehicle: saline 104 % of control | dose: 400.0 mg/kg/injection, schedule: Q01DX001 (ip), vehicle: saline 98 % of control

CC(=O)OC(Cc1nc2ccccc2s1)(C(F)(F)F)C(F)(F)F
inactive: dose: 3.13 mg/kg/injection, schedule: Q04DX002 (ip), vehicle: saline with Tween-80 97 % of control | dose: 6.25 mg/kg/injection, schedule: Q04DX002 (ip), vehicle: saline with Tween-80 91 % of control | [7] 97 % of control | dose: 25.0 mg/kg/injection, schedule: Q04DX002 (ip), vehicle: saline with Tween-80 94 % of control

COc1cc([N+](=O)[O-])ccc1NC(=O)Nc1ccccc1F
inactive: dose: 100.0 mg/kg/injection, schedule: Q01DX009 (ip), vehicle: Klucel (hydroxypropylcellulose) (HPC) 98 % of control | dose: 200.0 mg/kg/injection, schedule: Q01DX009 (ip), vehicle: Klucel (hydroxypropylcellulose) (HPC) 93 % of control | dose: 400.0 mg/kg/injection, schedule: Q01DX009 (ip), vehicle: Klucel (hydroxypropylcellulose) (HPC) 89 % of control

Cc1ccc(S(=O)(=O)N/N=C(\CSc2ccc([N+](=O)[O-])cc2)c2ccccc2)cc1
inactive: [1] 87 % of control | [2] 92 % of control | [3] 88 % of control

CC(=O)Nc1ccn(C2OC(COC(C)=O)C(OC3OC(COC(C)=O)C(OC(C)=O)C(OC(C)=O)C3OC(C)=O)C(OC(C)=O)C2OC(C)=O)c(=O)n1 (configuration not stated)
inactive: dose: 22.5 mg/kg/injection, schedule: Q01DX001 (ip), vehicle: carboxymethylcellulose (CMC) 103 % of control | dose: 45.0 mg/kg/injection, schedule: Q01DX001 (ip), vehicle: carboxymethylcellulose (CMC) 100 % of control | dose: 90.0 mg/kg/injection, schedule: Q01DX001 (ip), vehicle: carboxymethylcellulose (CMC) 100 % of control | dose: 180.0 mg/kg/injection, schedule: Q01DX001 (ip), vehicle: carboxymethylcellulose (CMC) 100 % of control

O=C/C(=C\C=C\c1ccc([N+](=O)[O-])cc1)c1ccccc1
inactive: dose: 75.0 mg/kg/injection, schedule: Q01DX001 (ip), vehicle: Klucel (hydroxypropylcellulose) (HPC) 86 % of control | dose: 150.0 mg/kg/injection, schedule: Q01DX001 (ip), vehicle: Klucel (hydroxypropylcellulose) (HPC) 88 % of control | dose: 300.0 mg/kg/injection, schedule: Q01DX001 (ip), vehicle: Klucel (hydroxypropylcellulose) (HPC) 89 % of control

c1cncc(-c2nnc(-c3cccnc3)o2)c1
inactive: [7] 124 % of control | dose: 50.0 mg/kg/injection, schedule: Q04DX002 (ip), vehicle: saline with Tween-80 91 % of control

CSCCC(NC(=O)NS(=O)(=O)c1ccc(C)cc1)C(=O)O (configuration not stated)
inactive: [1] 96 % of control | [2] 97 % of control | [3] 100 % of control

CCCCCCCCN(CCCCCCCC)CC(=O)c1ccc2cc(Br)c3ccccc3c2c1
inactive: dose: 100.0 mg/kg/injection, schedule: Q01DX001 (ip), vehicle: alcohol 101 % of control | dose: 200.0 mg/kg/injection, schedule: Q01DX001 (ip), vehicle: alcohol 100 % of control | dose: 400.0 mg/kg/injection, schedule: Q01DX001 (ip), vehicle: alcohol 103 % of control
